Data as given in patent US20140088000A1, “Leptin Rescues Neurons from Alzheimer's Disease Related Pathways Triggered by Lipid Burden” (Neurotez, Inc., priority 2012, published 2014).

Legend:
[1] = test system: AMP-activated protein kinase (AMPK); test: AMPK activity assay in lysates of treated RA-SY5Y cells (CycLex kit, Compound C-sensitive kinase activity); type: cell-based, human; details: 6 h, FIG. 2A
Description: (§1) RA-SY5Y were treated with Leptin (100 ng/ml) in the presence of ceramide (25 μM), cholesterol (27.5 μg/mL), oleic acid (30 μg/mL) or vehicle (MβCD—675 μg/mL; or DMSO—0.125%) for 6 h, and then harvested by scraping. Preparation of whole cell lysates from cell pellets was performed as described previously (32).
AMPK activity in RA-SY5Y cell lysates was determined using the CycLex AMPK Kinase Assay Kit (MBL International; Woburn, Mass.), as previously described (33, 34). Briefly, “relative AMPK activity”, hereafter referred to as “AMPK activity”, is defined as Compound C-sensitive protein kinase activity in cell lysates. […] Lysates were incubated in the presence or absence of 10 μM Compound C, and protein kinase activity determined by measuring phosphorylation of the Insulin Receptor Substrate-I (IRS-1) through immunoassay and conversion of a chromogenic substrate at an absorbance of 450 nm (Ai50). […]
We have previously shown that Leptin regulates AD pathways via activation of the cellular energy sensors, AMP-activated protein kinase (AMPK) and the sirtuins (SIRT) in neuronal cells (35, 36). To this end, we determined whether Leptin has the ability to attenuate these effects on cellular energetics in an acute model of metabolic stress (FIG. 2). […]

[2] = test system: Aβ; details: neurons; cited from earlier work
[3] = test system: sirtuins (SIRT); test: SIRT (total sirtuin) activity assay in lysates of treated RA-SY5Y cells (nicotinamide-sensitive deacetylase activity); type: cell-based, human; details: Leptin 100 ng/mL, 6 h, with ceramide, cholesterol or oleic acid, FIG. 2B
Description: as §1
“Total sirtuin”, hereafter termed “SIRT’, activity in cell lysates was determined using the HDAC Fluorimetric Cellular Activity Assay Kit (Enzo Life Sciences; Plymouth Meeting, Pa.), according to manufacturer's specified guidelines. Briefly, SIRT activity is defined as nicotinamide-sensitive deacetylase (class III HDAC) activity in cell lysates. 5 mM nicotinamide was identified by the manufacturer as a dose in which there was no further reduction in deacetylase activity upon increasing concentration. RA-SY5Y cell lysates were incubated in the presence or absence of 5 mM nicotinamide, and SIRT activity determined by adding the Flour de Lys Substrate for deacetylation followed by exposure to the Fluor de Lys Developer to generate a fluorescent signal for detection using a fluorimeter (EX−350-380 nm/Em440-460 nm). Normalized SIRT activity was measured in units of fluorescence intensity (Fi) and defined as: (Filysate−Filysate+nicotinamide)/μg proteinlysate. […]

[4] = mice having mutations on the ob gene, administration of leptin; cited from earlier work
[5] = transgenic model of AD; cited from earlier work
[6] = test system: RA-SY5Y cells; test: Cell viability assay (Cell-Titer Blue) during lipid/metabolic insult; type: cell-based, human
Description: The human neuroblastoma cell line, SH-SY5Y, was purchased from ATCC. Cell culture was performed according to manufacturer's specific guidelines. Cells were propagated in MEM containing 10% FBS. Neuronal differentiation was performed as described previously (32).
RA-SY5Y, at 2×10^4 cells/well, were seeded in 96-well microplates and treated for 48 h with a range of concentrations of MβCD, DMSO, ceramide, cholesterol or oleic acid to determine effective doses for 50-70% viability (data not shown), or in the presence of a range of concentrations of Leptin to determine effective doses to prevent cell death. Viability was assessed using the Cell-Titer Blue Viability Assay (Promega) by adding 20 μL of the reagent to each well for 4 h, and plates read by a microplate reader with fluorescence capabilities at Ex530-570 nm/Em580-620 nm. Viability was determined using a standard curve of known cell number and plotted as a percent of non-treated or vehicle control.
Doses of the lipids which decreased neuronal viability by 25-50% (Ceramide—25 μM; Cholesterol—27.5 μg/mL and Oleic Acid—30 μg/mL) after 18 h treatment (data not shown) were used to determine whether co-treatment with Leptin, an important modulator of lipid homeostasis, could attenuate the toxic effects of the insults (FIG. 1). RA-SY 5Y were treated for 18 h with either a low (10 ng/mL; gray bars) or moderate (100 ng/mL; black bars) dose of Leptin or control (white bars) in the presence or absence of ceramide, cholesterol or oleic acid, and cell viability measured. All lipid insults induced a significant (p<0.05) decrease in cell viability in the range of 35±15% when treated with control alone.

[7] = test system: Aβ(1-40); test: Extracellular Aβ(1-40) ELISA in culture media of SY5Y cells stably over-expressing human APP751; type: cell-based; details: Leptin 100 ng/mL, 18 h, SY5Y APP751, with ceramide, cholesterol or oleic acid; FIG. 4
Description: To generate SY5Y stably over-expressing amyloid precursor protein (APP), cells were transfected with a mammalian expression vector encoding the 751 amino acid isoform of human APP (APP751—Accession #NM 201413) (Origene Technologies; Rockville, Md.) using the FuOENE HD transfection reagent, according to manufacturer's specific instructions (Promega; Madison, Wis.). Briefly, cells were transiently transfected with APP751 or vehicle for 48 h and then switched into selection medium containing a concentration range of the antibiotic 0418 (100-600 μg/mL) to determine the optimal dose for stable selection. Selection media was changed every 3 days to remove non-viable cells. After 3 weeks, 200 μg/mL 0418 yielded distinct colonies while all vehicle-transfected cells were non-viable. […] Aβ(1-40) levels in cell culture media from SY5YAPP751 cells treated for 18 h with the aforementioned metabolic insults in the presence or absence of Leptin, were determined using the Human βAmyloid 1-40 ELISA kit (Invitrogen; Carlsbad, Calif.), and phospho- and total tau levels in RASY5Y lysates were determined using the Human Tau pSer396, pThr231 and Total Tau ELISA kits (Invitrogen) according to manufacturer's specific instructions. Aβ(1-40), phosho- and total tau levels were calculated from a standard curve developed with OD at 450 nm using 8 serial dilutions of known concentration. […]

[8] = test system: tau; test: Phospho-tau (pThr231, pSer396) and total tau ELISA in RA-SY5Y lysates; type: cell-based, human; details: 6 h, FIG. 3; for effect of lipid insult on tau phosphorylation (pTau231, pTau396): no Leptin, normalized to total tau
Description: as §1
Aβ(1-40) levels in cell culture media from SY5YAPP751 cells treated for 18 h with the aforementioned metabolic insults in the presence or absence of Leptin, were determined using the Human βAmyloid 1-40 ELISA kit (Invitrogen; Carlsbad, Calif.), and phospho- and total tau levels in RASY5Y lysates were determined using the Human Tau pSer396, pThr231 and Total Tau ELISA kits (Invitrogen) according to manufacturer's specific instructions. Aβ(1-40), phosho- and total tau levels were calculated from a standard curve developed with OD at 450 nm using 8 serial dilutions of known concentration.
Metabolic stress has been linked to the activation of AD pathological pathways, with lipids known to play an important role (21-23). We therefore investigated the extent to which lipids can induce hyperphosphorylation of tau (FIG. 3) and AP production (FIG. 4) in neuronal cells, and determined whether Leptin could prevent these effects. Utilizing similar lipid doses as previous experiments, RA-SY5Y were treated for 6 h with Leptin (100 ng/mL) or control in the presence or absence of ceramide, cholesterol or oleic acid, and phosphorylation of tau at two different epitopes, pTau231 (FIG. 3A) or pTau396 (FIG. 3B), as well as total tau measured by ELISA.

For “Leptin: recombinant human Leptin purchased from Sigma-Aldrich; adipocyte-derived helical protein hormone”, the “AMPK activity under lipid insult with Leptin” value ([1]; Leptin 100 ng/mL, with ceramide, cholesterol or oleic acid) is given as “significantly (p<0.05) boost both AMPK and SIRT activity in response to all lipid insults”, the “amount of Aβ secreted into the medium” value [2] is given as “reduces the amount of Aβ secreted into the medium in a time- and dose-dependent fashion” and the “SIRT activity under lipid insult with Leptin” value [3] is given as “significantly (p<0.05) boost both AMPK and SIRT activity in response to all lipid insults, with the exception of ceramide for SIRT”. The “reduction of body weight” value [4] was 30%, the cognitive performance [5] was “improves cognitive performance” and the “tau phosphorylation and Aβ production” value [5] was “reduces both tau phosphorylation and Aβ production”. The “cell viability under lipid insult, low dose Leptin” value ([6]; Leptin 10 ng/mL, 18 h, with ceramide, cholesterol or oleic acid, FIG. 1) was “significantly (p<0.05) improve viability only in response to the cholesterol insult”, the “cell viability under lipid insult, moderate dose Leptin” value ([6]; Leptin 100 ng/mL, 18 h, with ceramide, cholesterol or oleic acid, FIG. 1) was “significantly (p<0.05) improved viability in response to all challenges” and the “cell viability under lipid insult, high dose Leptin” value ([6]; Leptin 1000 ng/mL, versus 100 ng/mL group, data not shown) was “not significantly (p>0.05) different from the moderate group's viability”. The “extracellular Aβ(1-40) levels under lipid insult with Leptin” value [7] was “significantly (p<0.05) reduced Aβ(1-40) levels as similar to control” and the “tau hyperphosphorylation under lipid insult with Leptin” value ([8]; Leptin 100 ng/mL simultaneous treatment, oleic acid insult (far right group)) was “significantly (p<0.05) prevented this hyperphosphorylation”.
For `CC(C)CCC[C@@H](C)[C@H]1CC[C@H]2[C@@H]3CC=C4C[C@@H](O)CC[C@]4(C)[C@H]3CC[C@]12C` [Cholesterol, cholesterol, reference compound], the “effect of lipid insult on AMPK activity” value ([1]; cholesterol 27.5 μg/mL, no Leptin) was “significantly (p<0.05) suppress” and the “effect of lipid insult on tau phosphorylation (pTau231, pTau396)” value [8] was “induced significant (p<0.05) increases in tau phosphorylation at either epitope”.
For `CCCCCCCC/C=C\CCCCCCCC(=O)O` [Oleic Acid, oleic acid], the “effect of lipid insult on tau phosphorylation (pTau231, pTau396)” value [8] was “induced significant (p<0.05) increases in tau phosphorylation at either epitope”.
